Measured values from patent publication US9139593B2, “Azetidine compounds, compositions and methods of use” (Hoffman-La Roche Inc., priority 2011, dated 2015).

Target: Human Soluble Epoxide Hydrolase (Homo sapiens (Human), UniProt P34913)
Test: Human Soluble Epoxide Hydrolase Enzyme Assay
Format: biochemical
Conditions: resorufin epoxide substrate, fluorescence, room temperature, triplicates
Procedure: Human Soluble Epoxide Hydrolase Enzyme Assay
Test compounds (1.6 mM stock in DMSO) were diluted 3 fold in series in DMSO and 0.8 microliters per well were added into 384-well NBS microplates (Corning). Resorufin epoxide substrate (20 uM stock in DMSO) was diluted to 5 μM with Assay Buffer (25 mM bis-Tris-HCl, pH 7.0, 1 mM DTT and 0.2 mg/ml BSA) and 8 microliters per well were added to the microplates. Thirty two microliters per well of 3.6 nM soluble epoxide hydrolase in Assay Buffer was then added. The samples were incubated at room temperature and assay signals were monitored by reading excitation at 530 nm and emission fluorescence at 590 nm on a PlateVision (Zeiss) reader every 2 minutes for 8 times. The reaction rate, % inhibition and IC50 values were calculated using AssayAnalyzer and Condoseo software (Genedata AG, Basel, Switzerland).
All the experiments were done in triplicates.
The compounds of the present invention were tested for their capacity to inhibit sEH activity.

Human Soluble Epoxide Hydrolase, sequence (P34913 whole entry): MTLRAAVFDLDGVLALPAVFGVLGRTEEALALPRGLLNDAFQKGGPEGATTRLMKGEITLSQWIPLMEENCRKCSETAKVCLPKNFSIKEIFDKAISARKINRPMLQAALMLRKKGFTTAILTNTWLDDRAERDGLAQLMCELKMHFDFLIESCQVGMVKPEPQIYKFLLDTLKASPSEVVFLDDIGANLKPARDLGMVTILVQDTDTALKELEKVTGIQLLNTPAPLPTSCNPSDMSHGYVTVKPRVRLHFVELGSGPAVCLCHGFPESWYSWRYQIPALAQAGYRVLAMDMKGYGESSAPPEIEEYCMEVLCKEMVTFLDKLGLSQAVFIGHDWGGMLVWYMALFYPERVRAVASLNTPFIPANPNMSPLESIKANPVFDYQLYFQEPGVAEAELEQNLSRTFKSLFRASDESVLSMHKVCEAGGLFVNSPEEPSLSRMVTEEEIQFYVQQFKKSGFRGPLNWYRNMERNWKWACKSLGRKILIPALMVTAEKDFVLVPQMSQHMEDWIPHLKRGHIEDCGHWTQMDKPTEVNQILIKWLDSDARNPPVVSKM

| SMILES | IC50 [µM] |
| --- | --- |
| O=C(O)c1ccc(N2CC3(CN(C(=O)NCc4ccc(Cl)cc4Cl)C3)C2)cc1 [Example 2, 4-[6-(2,4-Dichloro-benzylcarbamoyl)-2,6-diaza-spiro[3.3]hept-2-yl]-benzoic acid] | 1.26 |
| O=C(NC12CC3CC(CC(C3)C1)C2)N1CC2(CCN2S(=O)(=O)c2ccc(Cl)cc2)C1 [Example 10, 1-(4-Chloro-benzenesulfonyl)-1,6-diaza-spiro[3.3]heptane-6-carboxylic acid adamantan-1-ylamide] | 2.55 |
| O=C(NCc1ccc(Cl)cc1Cl)N1CC2(CCN2S(=O)(=O)c2ccc(Cl)cc2)C1 [Example 11, 1-(4-Chloro-benzenesulfonyl)-1,6-diaza-spiro[3.3]heptane-6-carboxylic acid 2,4-dichloro-benzylamide] | 0.64 |
| O=C(NCc1ccc(Cl)cc1Cl)N1CC2CN(c3ncccn3)C2C1 (racemic) [Example 20, rac-6-Pyrimidin-2-yl-3,6-diaza-bicyclo[3.2.0]heptane-3-carboxylic acid 2,4-dichloro-benzylamide] | 0.361 |
| O=C(NCc1ccc(Cl)cc1Cl)N1CC2CN(S(=O)(=O)c3ccccc3)C2C1 (racemic) [Example 19, rac-6-Benzenesulfonyl-3,6-diaza-bicyclo[3.2.0]heptane-3-carboxylic acid 2,4-dichloro-benzylamide] | 0.238 |
| O=C(NCCCc1ccccc1)[C@@H]1CCC12CN(S(=O)(=O)c1ccccc1Cl)C2 [Example 14, (R)-2-(2-Chlorophenylsulfonyl)-N-(3-phenylpropyl)-2-azaspiro[3.3]heptane-5-carboxamide] | 2.79 |
| O=C(NCCCc1ccccc1)N1CC2(CCN2Cc2ccccc2)C1 [Example 8, Benzyl-1,6-diaza-spiro[3.3]heptane-6-carboxylic acid (3-phenyl-propyl)-amide] | 1.98 |
| O=C(NCc1ccc(Cl)cc1Cl)N1CC2(C1)CN(c1ncccn1)C2 [Example 4, 6-Pyrimidin-2-yl-2,6-diaza-spiro[3.3]heptane-2-carboxylic acid 2,4-dichloro-benzylamide] | 2.32 |
| O=C(NCc1ccccc1OC(F)(F)F)N1CC2(CCN2S(=O)(=O)c2ccc(Cl)cc2)C1 [Example 12, 1-(4-Chloro-benzenesulfonyl)-1,6-diaza-spiro[3.3]heptane-6-carboxylic acid 2-trifluoromethoxy-benzylamide] | 0.243 |
| O=C(NCCCc1ccccc1)N1CC2(CCN2S(=O)(=O)c2ccccc2C(F)(F)F)C1 [Example 13, 1-(2-trifluoromethyl-benzenesulfonyl)-1,6-diaza-spiro[3.3]heptane-6-carboxylic acid (3-phenyl-propyl)-amide] | 0.476 |
| O=C(NCc1ccc(Cl)cc1Cl)N1CC2(CCN2S(=O)(=O)c2ccc(F)cc2)C1 [Example 5, N-(2,4-Dichlorobenzyl)-1-(4-fluorophenylsulfonyl)-1,6-diazaspiro[3.3]heptane-6-carboxamide] | 0.284 |
| O=C(NCc1ccc(Cl)cc1Cl)N[C@@H]1CCC12CN(S(=O)(=O)c1ccc(Cl)cc1)C2 [Example 16, (R)-1-(2-(4-Chlorophenylsulfonyl)-2-azaspiro[3.3]heptan-5-yl)-3-(2,4-dichlorobenzyl)urea] | 2.69 |
| O=C(NCCCc1ccccc1)N1CC2(CCN2S(=O)(=O)c2ccc(Cl)cc2)C1 [Example 9, 1-(4-Chloro-benzenesulfonyl)-1,6-diaza-spiro[3.3]heptane-6-carboxylic acid (3-phenyl-propyl)-amide] | 1.99 |
| O=C(NCc1ccc(Cl)cc1Cl)N1CC2(C1)CN(C(=O)c1ccccc1)C2 [Example 1, 6-Benzoyl-2,6-diaza-spiro[3.3]heptane-2-carboxylic acid 2,4-dichloro-benzylamide] | 0.241 |
| O=C(O)c1ccc(N2CC3CN(C(=O)NCc4ccc(Cl)cc4Cl)CC32)cc1 (racemic) [Example 21, rac-4-[3-(2,4-Dichloro-benzylcarbamoyl)-3,6-diaza-bicyclo[3.2.0]hept-6-yl]-benzoic acid] | 0.351 |
| O=C(NCCCc1ccccc1)[C@H]1CCC12CN(S(=O)(=O)c1ccccc1Cl)C2 [Example 15, (S)-2-(2-Chlorophenylsulfonyl)-N-(3-phenylpropyl)-2-azaspiro[3.3]heptane-5-carboxamide] | 0.288 |
| O=C(NCc1ccc(Cl)cc1Cl)N1CC2CN(C(=O)c3ccccc3)C2C1 (racemic) [Example 18, rac-6-Benzoyl-3,6-diaza-bicyclo[3.2.0]heptane-3-carboxylic acid 2,4-dichloro-benzylamide] | 0.183 |
| O=C(NCc1ccc(Cl)cc1Cl)N[C@H]1CCC12CN(S(=O)(=O)c1ccc(Cl)cc1)C2 [Example 17, (S)-1-(2-(4-Chlorophenylsulfonyl)-2-azaspiro[3.3]heptan-5-yl)-3-(2,4-dichlorobenzyl)urea] | 0.678 |
| O=C(NCc1ccc(Cl)cc1Cl)N1CCC12CN(S(=O)(=O)c1ccc(Cl)cc1)C2 [Example 6, 6-(4-Chlorophenylsulfonyl)-N-(2,4-dichlorobenzyl)-1,6-diazaspiro[3.3]heptane-1-carboxamide] | 0.321 |
| O=C(NCc1ccc(Cl)cc1Cl)N1CC2(CCN2c2ncccn2)C1 [Example 7, N-(2,4-Dichlorobenzyl)-1-(pyrimidin-2-yl)-1,6-diazaspiro[3.3]heptane-6-carboxamide] | 0.125 |
